Columns and labels:
[1] = tested on: IL-17A-induced G-CSF production in human normal keratinocyte (NHK); test: NHK Assay: IL-17A-induced G-CSF production in human normal keratinocyte; assay type: cell-based; conditions: 24 h, IL-17A 5 ng/mL, simple average if tested more than once
Procedure, shortened: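 IC50 derives from G-CSF in supernatants, quantified by HTRF from a standard curve, with CellTiter-Glo viability compared to DMSO control. Before a 24 h, 37°C culture of normal human keratinocytes at 3000–4000 cells/well, compound dilutions were preincubated 1 h at rt with human IL-17A (5 ng/mL final), with 0.2% DMSO and 5% FBS.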

[2] = target: IL-17A(FLAG-Tagged): IL-17RA(His-Tagged) (Homo sapiens, UniProt Q16552, K93Q); test: IL-17A(FLAG-Tagged): IL-17RA(His-Tagged) Binding Disruption Eu-HTRF Assay, Protocol 1; conditions: Protocol 1, FLAG tagged IL-17A 2.5 nM; simple average if tested more than once
UniProt Q16552, sequence (Q16552 with tags, fused parts or gaps K93Q): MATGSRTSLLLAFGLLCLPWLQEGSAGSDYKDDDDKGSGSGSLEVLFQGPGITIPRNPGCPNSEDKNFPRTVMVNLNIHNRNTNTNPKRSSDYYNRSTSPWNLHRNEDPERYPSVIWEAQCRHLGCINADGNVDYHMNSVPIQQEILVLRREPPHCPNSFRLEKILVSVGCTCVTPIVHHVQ
Description: An antibody directed against the FLAG tag of IL-17A (SEQ ID NO: 1) is labeled with the HTRF donor chromophore (Europium-cryptate). IL-17A is present as a dimer that is “locked into” this quaternary structure due to the formation of loop-spanning […] disulfide bridges. The construct of IL-17RA used in the assay excludes the […] portion of the receptor and is fused to a C-terminal 10×His tag (SEQ ID NO:2). An antibody directed against the His tag of the IL-17RA chimera is labeled with the HTRF acceptor chromophore (“D2”). The fluorescence-resonance energy transfer (FRET) depends on the vicinity of the donor chromophore to the acceptor, and interruption of the binding between the IL-17A and IL-17RA causes the reduction/loss of FRET. Therefore, this assay allows to evaluate the compound effect on the binding IL-17A and IL-17RA by monitoring the fluorescence intensity of donor vs acceptor. The assay was run using either Protocol 1 or Protocol 2 as described below.
Protocol 1. 40 nl of 2-fold serial diluted compound solution for total 22 dilution points is added into each well of a 1536-well, white, low-volume, non-binding plate (Greiner #782904), then 2 μl of FLAG tagged IL-17A at 2× final concentration (2.5 nM) in solution of PBS+0.01% Triton-X100 is added to each well. The assay plate is briefly centrifuged then incubated for 1 h at rt. A mixed solution is prepared containing 2×5 nM 10HIS×IL-17RA, 2×2.5 nM Eu-anti-FLAG (CISBIO), 2×5 nM D2-anti-HIS (CISBIO) in PBS+0.01% Triton-X100+200 mM Potassium Fluoride (Sigma 60238) and 2 μl of mix is added to each well of the assay plate. The plate is briefly centrifuged then incubated for 2 h at rt. The HTRF intensities at the wavelength of donor (620 nm) and acceptor (665 nm) are measured using BMG Pherastar. The ratio between intensities at two wavelengths is calculated and plotted against the compound concentration and the data is fitted to a one-site competition model to yield IC50 of the compound.

IC50 [2] [nM]	Compound	IC50 ([1]; Homo sapiens, Keratinocyte) [nM]	IC50 [1] [nM]
< 50	CC(C)(OC[C@H](NC(=O)c1nonc1C1CC1)c1nc2nc(CN3C[C@H](C(F)(F)F)NC3=O)ccc2[nH]1)C(F)(F)F (relative stereo) [Example 38, 4-Cyclopropyl-N—((R*)-1-(5-(((R*)-2-oxo-4-(trifluoromethyl)imidazolidin-1-yl)methyl)-1H-imidazo[4,5-b]pyridin-2-yl)-2-((1,1,1-trifluoro-2-methylpropan-2-yl)oxy)ethyl)-1,2,5-oxadiazole-3-carboxamide]	< 50	–
< 50	[2H]C1([2H])[C@@H](C(F)(F)F)NC(=O)N1[C@@H](c1ccc2[nH]c([C@@H](NC(=O)c3nonc3C)[C@@H](C)O[C@@H](C)C(F)(F)F)nc2c1)C1CC1 (relative stereo) [Example 12, N-((1R*,2R)-1-(5-((R)-Cyclopropyl((S*)-2-oxo-4-(trifluoromethyl)imidazolidin-1-yl-5,5-d2)methyl)-1H-benzo[d]imidazol-2-yl)-2-(((S)-1,1,1-trifluoropropan-2-yl)oxy)propyl)-4-methyl-1,2,5-oxadiazole-3-carboxamide]	–	< 50
< 50	Cc1nonc1C(=O)NC(c1nc2cc([C@@H](C3CC3)N3C[C@@H](C(F)(F)F)NC3=O)ccc2[nH]1)[C@@H](C)O[C@H](C)C(F)(F)F (single isomer, unassigned) [Example 10, N-((1R*,2R)-1-(5-((R)-Cyclopropyl((S)-2-oxo-4-(trifluoromethyl)imidazolidin-1-yl)methyl)-1H-benzo[d]imidazol-2-yl)-2-(((R)-1,1,1-trifluoropropan-2-yl)oxy)propyl)-4-methyl-1,2,5-oxadiazole-3-carboxamide]	< 50	–
< 50	COC[C@H](c1ccc2[nH]c(C(COC(C)(C)C(F)(F)F)NC(=O)c3nonc3C3CC3)nc2c1)N1C[C@@H](C(F)(F)F)NC1=O (single isomer, unassigned) [Example 47, 4-Cyclopropyl-N—((R*)-1-(5-((S)-2-methoxy-1-((S)-2-oxo-4-(trifluoromethyl)imidazolidin-1-yl)ethyl)-1H-benzo[d]imidazol-2-yl)-2-((1,1,1-trifluoro-2-methylpropan-2-yl)oxy)ethyl)-1,2,5-oxadiazole-3-carboxamide]	< 50	–
< 50	Cc1nonc1C(=O)N[C@@H](COC(C)(C)C(F)(F)F)c1nc2cc([C@@H](C3CC3)N3CC(F)(F)CNC3=O)ccc2[nH]1 [Example 23, N—((R)-1-(5-((R)-Cyclopropyl(5,5-difluoro-2-oxotetrahydropyrimidin-1(2H)-yl)methyl)-1H-benzo[d]imidazol-2-yl)-2-((1,1,1-trifluoro-2-methylpropan-2-yl)oxy)ethyl)-4-methyl-1,2,5-oxadiazole-3-carboxamide]	< 50	–
< 50	CC(C)n1nccc1C(=O)NC(c1nc2cc([C@@H](C3CC3)N3C[C@@H](C(F)(F)F)NC3=O)ccc2[nH]1)[C@@H](C)O[C@@H](C)C(F)(F)F (single isomer, unassigned) [Example 15, N-((1R*,2R)-1-(5-((R)-Cyclopropyl((S)-2-oxo-4-(trifluoromethyl)imidazolidin-1-yl)methyl)-1H-benzo[d]imidazol-2-yl)-2-(((S)-1,1,1-trifluoropropan-2-yl)oxy)propyl)-1-isopropyl-1H-pyrazole-5-carboxamide]	< 50	–
< 50	COC[C@H](c1ccc2[nH]c(C(COC(C)(C)C(F)(F)F)NC(=O)c3nonc3C)nc2c1)N1CC(F)(F)CNC1=O (single isomer, unassigned) [Example 34, N—((R*)-1-(5-((S)-1-(5,5-Difluoro-2-oxotetrahydropyrimidin-1(2H)-yl)-2-methoxyethyl)-1H-benzo[d]imidazol-2-yl)-2-((1,1,1-trifluoro-2-methylpropan-2-yl)oxy)ethyl)-4-methyl-1,2,5-oxadiazole-3-carboxamide]	< 50	–
< 50	Cc1nonc1C(=O)NC(COC(C)(C)C(F)(F)F)c1nc2cc([C@@H](C)N3C[C@@H](C(F)(F)F)NC3=O)ccc2[nH]1 (single isomer, unassigned) [Example 6, 4-Methyl-N—((R*)-1-(5-((R)-1-((S)-2-oxo-4-(trifluoromethyl)imidazolidin-1-yl)ethyl)-1H-benzo[d]imidazol-2-yl)-2-((1,1,1-trifluoro-2-methylpropan-2-yl)oxy)ethyl)-1,2,5-oxadiazole-3-carboxamide]	< 50	–
50 to 100	Cc1nonc1C(=O)N[C@@H](COC(C)(C)C(F)(F)F)c1nc2cc([C@H](N3CC(F)(F)CNC3=O)C3(C#N)CC3)ccc2[nH]1 (relative stereo) [Example 40, N—((R*)-1-(5-((S*)-(1-Cyanocyclopropyl)(5,5-difluoro-2-oxotetrahydropyrimidin-1(2H)-yl)methyl)-1H-benzo[d]imidazol-2-yl)-2-((1,1,1-trifluoro-2-methylpropan-2-yl)oxy)ethyl)-4-methyl-1,2,5-oxadiazole-3-carboxamide]	> 100	–
> 100	CC(C)n1nccc1C(=O)N[C@@H](COC(C)(C)C(F)(F)F)c1nc2nc(CN3C[C@@H](C(F)(F)F)NC3=O)ccc2[nH]1 (relative stereo) [Example 37, 1-Isopropyl-N—((R*)-1-(5-(((S*)-2-oxo-4-(trifluoromethyl)imidazolidin-1-yl)methyl)-1H-imidazo[4,5-b]pyridin-2-yl)-2-((1,1,1-trifluoro-2-methylpropan-2-yl)oxy)ethyl)-1H-pyrazole-5-carboxamide]	> 100	–
< 50	Cc1nonc1C(=O)N[C@@H](COC(C)(C)C(F)(F)F)c1nc2cc(CN3C[C@@](C)(C(F)(F)F)NC3=O)ccc2[nH]1 (relative stereo) [Example 58, 4-Methyl-N—((R*)-1-(5-(((S*)-4-methyl-2-oxo-4-(trifluoromethyl)imidazolidin-1-yl)methyl)-1H-benzo[d]imidazol-2-yl)-2-((1,1,1-trifluoro-2-methylpropan-2-yl)oxy)ethyl)-1,2,5-oxadiazole-3-carboxamide]	< 50	–
> 100	[2H]C1([2H])[C@@H](C(F)(F)F)NC(=O)N1[C@@H](c1ccc2[nH]c([C@@H](NC(=O)c3nonc3C)[C@@H](C)O[C@@H](C)C(F)(F)F)nc2c1)C1CC1 (single isomer, unassigned) [Example 11]	> 100	–
< 50	CC(C)(OC[C@H](NC(=O)c1nonc1C1CC1)c1nc2cc([C@@H](C3CC3)N3CC(F)(F)CNC3=O)ccc2[nH]1)C(F)(F)F [Example 22, 4-Cyclopropyl-N—((R)-1-(5-((R)-cyclopropyl(5,5-difluoro-2-oxotetrahydropyrimidin-1(2H)-yl)methyl)-1H-benzo[d]imidazol-2-yl)-2-((1,1,1-trifluoro-2-methylpropan-2-yl)oxy)ethyl)-1,2,5-oxadiazole-3-carboxamide]	< 50	–
< 50	COC[C@H](c1ccc2[nH]c([C@@H](NC(=O)c3nonc3C)[C@@H](C)O[C@@H](C)C(F)(F)F)nc2c1)N1CC(F)(F)CNC1=O [Example 50, N-((1R,2R)-1-(5-((S)-1-(5,5-Difluoro-2-oxotetrahydropyrimidin-1(2H)-yl)-2-methoxyethyl)-1H-benzo[d]imidazol-2-yl)-2-(((S)-1,1,1-trifluoropropan-2-yl)oxy)propyl)-4-methyl-1,2,5-oxadiazole-3-carboxamide]	< 50	–
< 50	Cc1nonc1C(=O)N[C@@H](COC(C)(C)C(F)(F)F)c1nc2cc([C@@H](C)N3CC(F)(F)CNC3=O)ccc2[nH]1 (relative stereo) [Example 26, N—((R)-1-(5-((R*)-1-(5,5-Difluoro-2-oxotetrahydropyrimidin-1(2H)-yl)ethyl)-1H-benzo[d]imidazol-2-yl)-2-((1,1,1-trifluoro-2-methylpropan-2-yl)oxy)ethyl)-4-methyl-1,2,5-oxadiazole-3-carboxamide]	< 50	–
< 50	CC(C)(OC[C@H](NC(=O)c1nonc1C1CC1)c1nc2cc([C@@H](C3CC3)N3C[C@@H](C(F)(F)F)NC3=O)ccc2[nH]1)C(F)(F)F [Example 1, 4-Cyclopropyl-N—((R)-1-(5-((R)-cyclopropyl((S)-2-oxo-4-(trifluoromethyl)imidazolidin-1-yl)methyl)-1H-benzo[d]imidazol-2-yl)-2-((1,1,1-trifluoro-2-methylpropan-2-yl)oxy)ethyl)-1,2,5-oxadiazole-3-carboxamide]	< 50	–

From US20250122181A1, “BENZIMIDAZOLES AS MODULATORS OF IL-17” (Janssen Pharmaceutica NV, priority 2021, published 2025)
